Source: US7838049B2, “Extracts and compounds for inhibiting tyrosinase activity” (Taipei Medical University, priority 2009, dated 2010)

Key:
tyrosinase [1] = target: T1, tyrosinase (Homo sapiens, UniProt P14679); experiment: Assay of tyrosinase activity in human melanocyte (HEMn) cells; assay type: cell-based; settings: for inhibitory activity on tyrosinase: HEMn cells treated 24 hours, lysate reacted with L-DOPA, OD475 vs control, FIG. 1 and FIG. 2
T1 construct: Lysis buffer (1% Triton X-100, 1 mM phenylmethylsulfonyl fluoride (PMSF), 1 μg/ml aprotinin, and 10 μg/ml leupeptin) was added to the resulting cells to obtain the cell proteins; host or cells: HEMn human melanocytes, passages 3 to 10
T1 sequence (P14679 19-529): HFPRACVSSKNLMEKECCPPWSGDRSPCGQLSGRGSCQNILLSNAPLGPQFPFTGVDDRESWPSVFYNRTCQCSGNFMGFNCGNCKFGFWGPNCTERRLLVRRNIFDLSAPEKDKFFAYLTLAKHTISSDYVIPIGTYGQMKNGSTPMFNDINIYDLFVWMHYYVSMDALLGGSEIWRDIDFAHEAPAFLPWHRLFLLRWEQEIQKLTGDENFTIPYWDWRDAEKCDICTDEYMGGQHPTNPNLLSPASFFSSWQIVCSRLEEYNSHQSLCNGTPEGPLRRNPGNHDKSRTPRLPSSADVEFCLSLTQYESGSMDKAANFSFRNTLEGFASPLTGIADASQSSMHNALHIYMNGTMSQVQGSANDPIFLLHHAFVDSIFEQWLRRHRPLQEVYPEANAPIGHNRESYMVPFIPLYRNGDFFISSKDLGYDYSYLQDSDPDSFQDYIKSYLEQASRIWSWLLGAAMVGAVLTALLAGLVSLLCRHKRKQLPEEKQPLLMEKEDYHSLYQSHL
Method: Human melanocyte (HEMn) cells are cultured with medium 254 containing antibiotics and growth factors (Cascade Biologics, Inc., Portland, Oreg., USA) in an incubator with 5% CO2 for serial passage. Passages 3 to 10 of the HEMn cells were used in the experiments below.
HEMn cells were further cultured for 48 hours and then the ethyl acetate extract of the invention and the test compounds (MHL-1: 3,4-dihydroxy-5-methoxybiphenyl-2′-O-β-d-glucopyranoside and MHL-2: 3,6-dihydroxy-2,4-dimethoxy-dibenzofuran) were added. After 24 hours, the cells were washed with PBS buffer. Lysis buffer (1% Triton X-100, 1 mM phenylmethylsulfonyl fluoride (PMSF), 1 μg/ml aprotinin, and 10 μg/ml leupeptin) was added to the resulting cells to obtain the cell proteins. The cell proteins were kept at −80° C. Subsequently, the cell proteins were thawed and then centrifuged at 12,000 rpm for 5 minutes. The supernatant was taken for determination of the amount of protein by BCA protein assay. The proteins with different concentrations were added to a 96-well microplate and then PBS buffers were added. L-DOPA was added to the microplate to react with the protein at 37° C. for 1 hour. The absorbance of the solution at 475 nm wavelength was detected. Tyrosinase activity (%)=(OD475 of the sample/OD475 of control)×100.
Arbutin as positive control and 1% DMSO as blank were used in the tyrosinase activity assay stated above. […] MHL-1 and MHL-2 inhibit around 40% and 20% tyrosinase activity, respectively. The ethyl acetate extract and the compounds of the invention are effective in inhibiting tyrosinase.

tyrosinase [2] = target: T1, tyrosinase; experiment: Tyrosinase oxidative activity analysis by L-Dopa staining of SDS-PAGE gels; assay type: cell-based; settings: HEMn cells treated with 100, 80 and 60 μM of MHL-1; FIG. 3
Method: The compound of the invention, MHL-1, with different concentrations was added to HEMn cells. The lysis of HEMn cells, isolation of cell proteins and BCA protein assay were performed on the supernatant obtained as stated in Example 1 so that the amount of the protein could be determined. 10% SDS-polyacrylamide gel electrophoresis (dd-H2O; 10% Acrylamide mix; 1.5M Tris-base pH8.8; 10% SDS; 10% Ammonium persulfate; TEMED) was performed on the resulting protein and the sample buffer (60 mM Tris-HCl, pH 6.8, 2% sodium dodecyl sulfate (SDS), 10% glycerol, 0.01% bromophenol blue) at the same time. The molecular weight of tyrosinase was about 72 kDa. The resulting gels were washed with 0.1 M of PBS (pH 6.8) for 30 minutes and then the protein at the position of 72 kDa reacted with 5 mM L-DOPA in 0.1 M PBS at 37° C. for 1 hour. After the reaction, Quantity One 1-D software was used to determine the amount of protein.

inhibitory activity on tyrosinase (tyrosinase [1])	tyrosinase inhibitory activity compared with arbutin (positive control) (tyrosinase [1]; HEMn cells, FIG. 2)	SMILES	tyrosinase oxidative activity (L-DOPA staining of the 72 kDa band) (tyrosinase [2])
~20%	–	COc1cc2c(oc3c(O)cccc32)c(OC)c1O [MHL-2, 3,6-dihydroxy-2,4-dimethoxy-dibenzofuran]	–
around 40%	superior activity compared to arbutin	COc1cc(-c2ccccc2OC2OC(CO)C(O)C(O)C2O)cc(O)c1O [MHL-1, 3,4-dihydroxy-5-methoxybiphenyl-2′-O-β-D-glucopyranoside]	the higher the concentration of MHL-1, the lower the tyrosinase oxidative activity
